Data as given in patent US20110178072A1, “STEREOSPECIFICITY OF METHYLSULFINYL REDUCTION” (priority 2008, published 2011).

Legend:
SK-Hep1 cell extracts = experiment: Specific activity of SK-Hep1 cell extracts for reduction of free Met sulfoxides; type: biochemical, human; conditions: for Specific activity for each Met-O: SK-Hep1, ± standard deviations from 3 independent experiments
Experimental: HPLC analysis of media samples-Cells were plated in 6-well plates at 7.5×10^4 cells/well in 1.5 mL of regular DMEM medium. After 24 hours, cells were washed with PBS and the medium was changed to a modified DMEM containing Met, Met-SO, Met-RO, or Met-RSO (0.1 mM of each amino acid). 90 μL of medium from each well was collected at 0, 24, 48, 72, 96 hours and mixed with 10 μL of 100% TCA. After incubation at 4° C. for 10 minutes and centrifugation at 13,000 rpm for 15 minutes, the supernatant (50 μL) was diluted 10 times with distilled water and prepared for OPA derivatization. OPA derivatization of amino acids and HPLC analysis was performed as described (Sharov, V. S., Ferrington, D. A., Squier, T. C., […]. (1999) FEBS Lett. 455, 247-250) with minor modifications. The derivatization reagent was freshly prepared as a stock solution (40 mg of o-phthalaldehyde, 1 mL of methanol, 50 μL, of 2-mercaptoehanol, 5 mL of 0.1 M Na2B4O7, pH 9.5) at room temperature in a capped amber vial. Sample solutions (2-5 μL) were mixed with the OPA derivatization reagent to 100 μL, final volume. Following a 2 minute reaction at room temperature, the mixture was fractionated on a Zorbax Eclipse XDB-C8 column (4.6×150 mm). Changes in Met levels in the fRMsr activity assay were similarly quantified. […] Activity assays of fRMsr-Reaction mixture (40 μL) included 50 mM DTT, 1 mM substrate (Met-RO or Met-SO), and purified enzyme or cell lysate prepared by treatment with […] cell lysis reagent (Sigma). 20 μL of the reaction mixture was mixed with 2 μL of TCA and subjected to OPA derivatization as described above and then injected onto the column to measure endogenous Met level in the samples. An additional 20 μL from the same original reaction mixture were incubated at 37° C. for 30 minutes and then subjected to OPA derivatization by the same procedure using TCA. After derivatization of the sample (2-5 μL) by adding OPA solution to 100 μL as a final volume, 50 μL of the mixture were subjected to an HPLC separation as described above.

selenoproteins = experiment: 75Se metabolic labeling of SK-Hep1 cells grown on Met and Met sulfoxide media; type: cell-based, human; conditions: 0.1 mM of each amino acid
Experimental: ^75 Se Metabolic labeling—SK-Hep1 cells were plated in 6-well plates at 7.5×10^4 cells/well in 1.5 mL of regular DMEM medium. After 24 hours, cells were washed with PBS and the medium was changed to modified DMEM media containing Met, Met-SO, Met-RO, or Met-RSO (0.1 mM of each amino acid). 0.01 mCi of freshly neutralized [^75Se]selenious acid (specific activity 1,000 Ci/mmol, University of Missouri Research Reactor) was added in each well at 48 hours after changing the medium and cells were incubated at 37° C. for 24 hours in 5% CO2 atmosphere, followed by harvesting the cells. Cell extracts (30 μg of total protein) were electrophoresed on 10% Bis-Tris gels and transferred onto PVDF membranes (Invitrogen). The ^75Se radioactivity pattern was visualized by using a PhosphorImager (GE Health Care).

[1] = test system: yfRMsr transfected SK-Hep1; experiment: Specific activity of yfRMsr transfected SK-Hep1 cells towards free Met sulfoxides; type: biochemical, human; conditions: for Specific activity of fRMsr-transfected cells: fRMsr-transfected SK-Hep1 cells; for Specific activity for each Met-O: yfRMsr transfected SK-Hep1, ± standard deviations from 3 independent experiments
Experimental: Transfection of yeast fRMsr gene into SK-Hep1 cells—A 6 His-tag sequence was cloned at the C-terminus of yeast fRMsr, the sequence was inserted into a mammalian expression vector, pCI-neo (Promega), and the resulting construct was verified by DNA sequencing. […] To establish a stable cell line, cells were selected in the presence of 800 μg/mL G418 sulfate (Promega), and further maintained in the presence of 400 μg/mL G418 sulfate. Expression of recombinant fRMsr was verified by western blotting using anti-His-tag antibodies and Msr activities were assayed by an HPLC method using OPA derivatization.
Activity assays of fRMsr—Reaction mixture (40 μL) included 50 mM DTT, 1 mM substrate (Met-RO or Met-SO), and purified enzyme or cell lysate prepared by treatment with CelLytic™M cell lysis reagent (Sigma). 20 μL of the reaction mixture was mixed with 2 μL of TCA and subjected to OPA derivatization as described above and then injected onto the column to measure endogenous Met level in the samples. An additional 20 μL from the same original reaction mixture were incubated at 37° C. for 30 minutes and then subjected to OPA derivatization by the same procedure using TCA. After derivatization of the sample (2-5 μL) by adding OPA solution to 100 μL as a final volume, 50 μL of the mixture were subjected to an HPLC separation as described above.

CBS = experiment: Western blot analysis of CBS in SK-Hep1 cells grown on Met and Met sulfoxide media; type: cell-based, human; conditions: 0.1 mM
Experimental: Analysis of SK-Hep1 and fRMsr-transfected SK-Hep1 cells—SK-Hep1 and fRMsr-transfected SK-Hep1 cells were plated in 6-well plates at 7.5×10^4 cells/well in regular DMEM medium. The medium was changed to Met-free DMEM supplemented with either Met or individual Met sulfoxides at 24 hours after plating. Cells were then collected every 24 hours until 96 hours. Protein concentration was measured by the Bradford assay and the samples were probed by standard immunoblot assays with polyclonal MsrA (kindly provided by Bertrand Friguet), cystathionine beta synthase (CBS) (kindly provided by Ruma Banerjee), and activating transcription factor 3 (ATF3) (Santa Cruz Biotechnology) antibodies.

[2] = test system: MsrA-knockdown SK-Hep1 cells; experiment: Growth of MsrA-knockdown SK-Hep1 cells on Met and Met sulfoxide media; type: cell-based, human; conditions: 0.1 mM, 96 hours
Experimental: Proliferation Assay—Cell growth was quantified using colorimetric MTS assay (Promega). Cells in regular DMEM medium were plated in 96-well plates at 5×10^3 cells/well, washed with PBS, and specialized DMEM media were added that contained Met, Met-SO, Met-RO, or Met-RSO 24 hours after plating. To assay for cell proliferation, a tetrazolium compound [3-(4,5-dimethylthiazol-2-yl)-5-(3-carboxymethoxyphenyl)-2-(4-sulfophenyl)-2H-tetrazolium, inner salt; MTS] and an electron coupling reagent (phenazine methosulfate; PMS) were mixed according to the manufacturer's protocol and then 20 μL of the mixture were added to 100 μL of phenol red-excluded media that further replaced cell culture media. After 90 minutes of incubation at 37° C. in the atmosphere of 5% CO2, cell proliferation was measured at indicated time periods from 0 to 96 hours at 450 nm in a plate reader. Direct counting of viable cells using 0.2% trypan blue was done in 6-well plates. Knockdown of MsrA in SK-Hep1 cells by siRNA—Double stranded siRNAs (Dharmacon) for targeting human MsrA mRNA were used to knockdown this gene in SK-Hep1 cells. Cells were transfected with siRNA by using DharmaFECT™ Transfection Reagent (Dharmacon) according to the manufacturer's protocol. Proliferation of these cells was assayed 60 hours after transfection in comparison with control transfected cells.

Structure (SMILES) | Specific activity for each Met-O (SK-Hep1 cell extracts) | Specific activity of SK-Hep1 cell extracts for reduction of free Met sulfoxide (SK-Hep1 cell extracts) | Selenoprotein patterns (75Se labeling) (selenoproteins) | Specific activity of fRMsr-transfected cells [1] | Specific activity for each Met-O [1] | Expression of CBS (CBS; SK-Hep1 cells) | Growth of MsrA-deficient cells [2] | Expression of CBS (CBS; fRMsr-expressing SK-Hep1 cells)
C[S@+]([O-])CC[C@H](N)C(=O)O [Met-SO, methionine-S-sulfoxide] | 38.6 ± 3.6 pmol/min/mg | ≈ 38.6 pmol/min/mg protein | No difference was observed | ≈ 42.7 pmol/min/mg protein | 42.7 ± 5.9 pmol/min/mg | CBS levels were decreased | grew neither | –
C[S@@+]([O-])CC[C@H](N)C(=O)O [Met-RO, methionine-R-sulfoxide] | ND* (A signal corresponding to specific activity less than 5 pmol/min/mg is shown as ND (Not Detectable)) | No free Met-RO reductase activity was detected | No difference was observed | ≈ 46.4 pmol/min/mg protein | 46.4 ± 5.0 pmol/min/mg | reduced expression | grew neither | normal CBS levels
